Like-named read-outs stand apart in the source and are kept apart here.
Tests used:
[1] = tested on: PDE10A; assay: Estimated PDE10A target occupancy; format: in vivo, Rhesus monkeys (Macaca mulatta); details: calculated from Cp,u with IC50 1.0 nM
[2] = tested on: brain [18F] FDG uptake; assay: [18F] Fluorodeoxyglucose-PET imaging of brain; format: in vivo, Rhesus monkeys (Macaca mulatta)
[3] = tested on: parkinsonian motor effects; assay: Standardized motor disability scale for parkinsonian primates; format: in vivo, Rhesus monkeys (Macaca mulatta)
[4] = tested on: finger dexterity / fast hand movements; assay: Klüver Board test; format: in vivo, Rhesus monkeys (Macaca mulatta)
[5] = tested on: stability and balance; assay: Perch test; format: in vivo, Rhesus monkeys (Macaca mulatta); details: MP-10 0.21 or 0.67 mg/kg s.c.
[6] = rat; ref Schmidt et al, 2008; cited from earlier work
[7] = mouse; ref Verhoest et al, 2009; cited from earlier work
[8] = tested on: psychotic symptoms; details: ref DeMartinis, 2012, cited from earlier work
[9] = tested on: blood-brain barrier efflux transporters; details: ref Verhoest et al, 2009; cited from earlier work
[10] = tested on: cortical-, extrapyramidal motor- and autonomic-mediated functions; assay: Drug Effects on Nervous System
[11] = Plasma levels of MP-10 after subcutaneous administration; details: rhesus monkey, sc
[12] = tested on: D2 receptor; details: ref Olsen et al., 2008; cited from earlier work
[13] = MP-10 0.67 and 1.33 mg/kg s.c., p < 0.001
[14] = MP-10 doses up to 0.21 mg/kg s.c.
[15] = risperidone 0.032 and 0.1 mg/kg s.c.

Cn1cc(-c2ccncc2)c(-c2ccc(OCc3ccc4ccccc4n3)cc2)n1 [MP-10, 2-[4-(1-methyl-4-pyridin-4-yl-1H-pyrazol-3-yl)-phenoxymethyl]-quinoline]
projected PDE10A target occupancy ([1]; 0.21 mg/kg s.c., 1 h): 16 ± 1%
projected PDE10A target occupancy ([1]; 0.21 mg/kg s.c., 2 h): 19 ± 3%
projected PDE10A target occupancy ([1]; 0.21 mg/kg s.c., 3 h): 17 ± 1%
projected PDE10A target occupancy ([1]; 0.67 mg/kg s.c., 1 h): 41 ± 5%
projected PDE10A target occupancy ([1]; 0.67 mg/kg s.c., 2 h): 47 ± 2%
projected PDE10A target occupancy ([1]; 0.67 mg/kg s.c., 3 h): 42 ± 3%
SUV of [18F] FDG in striatal regions (pooled) vs vehicle ([2]; MP-10 0.211 or 1.33 mg/kg s.c., p < 0.01, n=4): statistically significant increases
SUV of [18F] FDG in cortical regions (pooled) vs vehicle ([2]; MP-10 0.211 or 1.33 mg/kg s.c., p < 0.02, n=4): statistically significant increases
FDG SUV in other brain regions relative to control (vehicle) ([2]; two doses of MP-10 (0.21, 1.33 mg/kg s.c.)): No significant differences
global motor disability scores ([3]; MP-10 0.021, 0.067, or 0.21 mg/kg s.c., 3 hours after administration): no effect
social interaction ([3]; MP-10 0.67 and 1.33 mg/kg s.c., similar at both doses, p < 0.001): decrease in social interaction
impairment in hand movements [3, 13]: mild and similar at both doses
impairment in leg movements [3, 13]: mild and similar at both doses
mobility score [3, 13]: increased in a dose dependent fashion
posture score [3, 13]: increased in a dose dependent fashion
global motor disability scores ([3]; MP-10 0.67 and 1.33 mg/kg s.c., p < 0.001, 3 of the 4 monkeys): increase in global scores
Klüver board task performance ([4]; MP-10 0.67 and 1.33 mg/kg s.c.): failed to perform the task
Klüver board index of success [4, 14]: no effect
Klüver board action time ([4]; MP-10 doses up to 0.21 mg/kg s.c., 90 min after injection): no effect
Perch test performance [5]: did not show any compromise
Perch test scores before and 90 min after injection [5]: zero
brain-to-plasma ratio (total brain-to-total plasma concentrations) [6]: ~ 0.9
brain-to-plasma ratio (total brain-to-total plasma concentrations) [7]: ~ 0.9
primary endpoint: reduction in psychotic symptoms ([8]; Phase 2A trial NCT01175135): did not meet the primary endpoint
adverse effects in Phase 2A trial [8]: sedation and side effects consistent with target engagement
substrate for blood-brain barrier efflux transporters [9]: no evidence that it is a substrate
DENS attentiveness [10, 13]: decreased attentiveness
DENS involuntary movements [10, 13]: induced oral dyskinesias
DENS reactivity [10, 13]: decreased attentiveness and reactivity
total DENS scores [10, 13]: significant effects
DENS involuntary movements [10, 14]: no effect
DENS salivation ([10]; MP-10 s.c.): non-significant increases
Tmax [11]: 1 to 2 h

Cc1nc2n(c(=O)c1CCN1CCC(c3noc4cc(F)ccc34)CC1)CCCC2 [risperidone, reference compound]
motor disability scores (motor behavior) ([3]; risperidone 0.01 mg/kg s.c., 3 hours after administration): no effect
hand movement score, in comparison to MP-10 [3, 15]: greater, dose-dependent increases
leg movement score, in comparison to MP-10 [3, 15]: greater, dose-dependent increases
mobility score, in comparison to MP-10 [3, 15]: notably less effect
posture score, in comparison to MP-10 [3, 15]: roughly comparable increases
motor disability scores ([3]; risperidone 0.032 and 0.1 mg/kg s.c., dose- and time-dependent, p < 0.001): significant increases
Klüver board action time, baseline vs 90 min ([4]; risperidone 0.01 mg/kg s.c.): No significant differences
Klüver board action time ([4]; risperidone 0.032 and 0.1 mg/kg s.c., at cut off): 60 s
D2 receptor TO at which antipsychotic efficacy is observed [12]: > 55%
behaviors scored using the DENS scale ([10]; risperidone 0.01 mg/kg s.c.): minimal effects
DENS involuntary movements ([10]; risperidone 0.032 mg/kg s.c., all monkeys): significant involuntary movements
intensity of involuntary movements ([10]; risperidone 0.1 mg/kg s.c. vs 0.032 mg/kg): further increased
DENS attentiveness, compared with MP-10 ([10]; risperidone s.c.): less impairment
DENS reactivity, compared with MP-10 ([10]; risperidone s.c.): less impairment
